“Also recorded” adds a separate entry of the source.

Series [1] has as its system caudal epididymal sperm. The experiment in a line: Epididymal sperm motility and concentration analyses. Format: in vivo, mouse. Particulars: primarily in the F1 generation males. The protocol: The sperm motility was determined using caudal epididymal sperm. The epididymis was dissected free of connective tissue and a small cut made to the cauda. The tissue was placed in 2 ml F12 culture medium containing 0.1% BSA for 10 minutes at 37° C. Fifty microliters was placed on a warm slide and gently cover-slipped. The specimen was immediately examined using phase contrast microscopy with 200×magnification. The sperm motility assays examined rapid progressive, slow progressive and non-progressive motility according to WHO category.^51 The ratio of motile sperm to the total number of sperm, including immotile sperm, was calculated. Approximately 50-100 sperm were counted per microscopic field. The procedure was repeated at least twice with a new specimen from the same epididymis. Epididymal sperm count was determined using the same epididymis according to a previously described method with some modifications.^25, 52 Briefly, the epididymis that was placed in the 2 ml of culture medium was minced. The tissue pieces were stored at 4° C. for 48 hours to immobilize the sperm. Three independent sperm samples were counted using a hemocytometer. The counts were averaged and used as a replicate in statistical analysis. The control and vinclozolin generation analysis and the control and flutamide generation analysis for an individual experiment were done at the same time. All analyses were done blinded, such that different individuals were used for collection and counting.

The test system of series [2] is testicular spermatogenic cells. The experiment in a line: Testicular spermatogenic cell apoptosis (TUNEL assay), F1-F3 lineage after F0 gestational exposure. Format: in vivo, mouse. Particulars: 129 strain, flutamide 20 mg/kg/day IP to F0 E7-E13; any age or generation analyzed; vs control. The protocol: (§1) The experimental design involved exposing gestating female inbred 129 strain and outbred CD-1 strain mice to daily intraperitoneal (IP) injections of vehicle (DMSO) (control) or vinclozolin at two doses, 100 mg/kg/day (V1) or 200 mg/kg/day (V2), between embryonic day 7-13 of gestation. In addition, a comparison was used with flutamide IP injections at a 20/mg/kg/day dose. The F1 generation males and females from different litters were bred to generate the F2 generation animals and F2 generation males and females from different litters were bred to generate the F3 generation animals, see Methods below. No sibling or cousin breedings occurred to avoid any inbreeding artifacts. Selected F1, F2 and F3 generation animals from postnatal 90 (P90) or 300 (P300) days of age were analyzed for testis, sperm and other pathologies as previously described.^11, 20, 21
Timed pregnant inbred 129 mice were given intraperitoneal injections with vinclozolin (100 mg/kg·day, 99% pure; ChemService, West Chester, Pa.), flutamide (20 mg/kg·day, Sigma, St. Louis, Mo.) or DMSO in sesame oil (vehicle) as controls, while timed pregnant outbred CD-1 mice were given intraperitoneal injections (IP) with vinclozolin doses: 100 mg/kg·day (V1) or 200 mg/kg·day (V2) or DMSO in sesame oil as controls.^21 Mice were given injections from embryonic day (E) E7-E13, with plug date equal to day 0. Controls were injected with vehicle (DMSO) dose and were matched with vinclozolin or flutamide treatment animals within the same mouse strain at the time of injection and were analyzed together throughout all three generations. […] Male mice were collected and analyzed between P60-P90 (P90) for all generations and treatment groups. […]

Series [3] relates to 129 and CD-1 mice. The experiment in a line: Litter size, sex ratio, body and tissue weights (toxicity). Particulars: transient embryonic exposure. Format: in vivo, mouse. The protocol: as §1
Timed pregnant inbred 129 mice were given intraperitoneal injections with vinclozolin (100 mg/kg·day, 99% pure; ChemService, West Chester, Pa.), flutamide (20 mg/kg·day, Sigma, St. Louis, Mo.) or DMSO in sesame oil (vehicle) as controls, while timed pregnant outbred CD-1 mice were given intraperitoneal injections (IP) with vinclozolin doses: 100 mg/kg·day (V1) or 200 mg/kg·day (V2) or DMSO in sesame oil as controls.^21 Mice were given injections from embryonic day (E) E7-E13, with plug date equal to day 0. Controls were injected with vehicle (DMSO) dose and were matched with vinclozolin or flutamide treatment animals within the same mouse strain at the time of injection and were analyzed together throughout all three generations. The number of treated gestating females used were: for mouse 129 strain (3 controls and 4 vinclozolin treated); for mouse 129 strain flutamide 20 mg/kg/day dose (3 controls and 3 flutamide treated); and for mouse CD-1 strain (4 control and 3 vinclozolin treated (100 mg/kg/day (V1), 3 vinclozolin 200 mg/kg/day (V2)). F1 postnatal (P)P90 males and females from different litters of control, vinclozolin and flutamide treatment groups were bred to generate the F2 generation. F2 generation mice were bred to generate the F3 generation. Breedings were carefully monitored to eliminate any sibling or cousin breeding to remove potential phenotypes as a result of inbreeding. Male mice were collected and analyzed between P60-P90 (P90) for all generations and treatment groups. The number of P90 males collected for replicates for the mouse 129 strain vinclozolin treatment group (i.e. n value) were: for F1 (8 control, 11 vinclozolin); for F2 (11 control, 22 vinclozolin); and for F3 (11 control, 11 vinclozolin). […]

The test system of series [4] is Harlan Sprague Dawley rats. The experiment in a line: Onset of puberty in F1-F3 generation after F0 gestational exposure. The format is in vivo, rat. An excerpt:
At proestrus as determined by daily vaginal smears, the female rats, (90 days) were pair-mated with male rats (120 days). On the next day, the females were separated and their vaginal smears were examined microscopically and if they were sperm-positive (day 0) the rats were tentatively considered pregnant and then weighed with a digital animal weighing balance to monitor increases in body weight. Vaginal smears were continued for monitoring diestrus status in these rats until day 7. […] These pregnant rats were then given daily intraperitoneal injections of any one of the following single chemicals or mixtures with an equal volume of sesame oil (Sigma) on days E-8 through E-14 of gestation. Treatment groups were Control, Pesticide (Permethrin+DEET), Plastics (Bisphenol-A, DBP and DEHP), Dioxin (TCDD), and Jet Fuel (JP8 hydrocarbon). The pregnant female rats treated with various mixtures were designated as the F0 generation. When there was a drop in the litter size and the sex ratio of pups in F1 generation of Plastics group, another treatment group was included with only half the dose of Bisphenol-A, DBP and DEHP and this group was designated ‘Low Dose Plastics’ group.
The offspring of the F0 generation were the F1 generation. Likewise F2 and F3 generation offspring were generated. These rats were weaned from their mothers at 21 days of age. At weaning, the following weaning traits were measured; litter size, sex ratio, weaning weight (in grams), and anogenital index (AGI). […] Weaning weights of rats were measured by a digital balance. AGI was computed as the AGD in mm (from the bottom of the anal opening to the top of the genital opening) per gram of body weight at weaning. Starting at the age of 30 days for females and 35 days for males, puberty checks were performed. These checks were performed on a daily basis until puberty in each rat was confirmed. Onset of puberty for females was indicated by a clear vaginal opening, and for males it was indicated when the glans penis was able to fully extend free of the preputial fold (balano-preputial separation).

Series [5] can be described thus: Serum hormone levels, F3 generation. The format is in vivo, rat. Particulars: F3 generation males. The protocol: Both female and male rats of F1, F2 and F3 generation at 90-120 days of age were euthanized by CO2 inhalation and cervical dislocation for dissection, collection and examination of tissues including testis, epididymis, and ovary. Body and tissue weights were measured at dissections. Blood samples were collected, allowed to clot, centrifuged and serum samples stored for hormone assays. Tissues were fixed in Bouins solution (Sigma) and 70% ethanol, then processed for paraffin embedding by standard procedures for histopathology examination. Five-micrometer sections were made and were either unstained or stained with H & E stain.

Series [6] deals with sperm promoter epigenome (DNA methylation). Description: MeDIP-Chip analysis of F3 generation sperm promoter DNA methylation. Format: in vivo, rat. Particulars: F3 generation sperm vs vehicle control; p<10^-5. The protocol: Sperm heads were separated from tails through sonication following previously described protocol (without protease inhibitors) and then purified using a series of washes and centrifugations from a total of nine F3 generation rats per treatment lineage that were 120 days of age. DNA extraction on the purified sperm heads was performed as previously described. Equal concentrations of DNA from individual sperm samples were then used to produce pools of DNA material. Three DNA pools were produced in total per treatment, which contained the same amount of sperm DNA from three animals. Therefore a total of 45 animals were used for building three DNA pools per treatment for the 4 experimental groups plus controls. These DNA pools were then used for methylated DNA immunoprecipitation (MeDIP). MeDIP was performed as follows: 6 μg of genomic DNA was subjected to series of three 20 pulse sonications at 20% amplitude and the appropriate fragment size ([…]) was verified through 2% agarose gels; the sonicated genomic DNA was resuspended in 350 ul TE and denaturated for 10 min at 95° C. and then immediately placed on ice for 5 min; 100 ul of 5×IP buffer (50 mM Na-phosphate pH7, 700 mM NaCl, 0.25% Triton X-100) was added to the sonicated and denatured DNA. […]

[7] abbreviates: transgenerational F3 generation.

On to `CC(C)C(=O)Nc1ccc([N+](=O)[O-])c(C(F)(F)F)c1` [flutamide], for which, in series [1], the “mean percentage of motile epididymal sperm” value is recorded as “reduction”. The “apoptotic germ cells in the testis” value in series [2] is given as “no differences”. Besides, in series [3] (F1-F3), the “body weight, testis weight index, or kidney weight index” value was “no consistent transgenerational differences”. Also, the “litter size or male/female sex ratio” value in series [3] (all generations analyzed) was “no consistent transgenerational effects”.

Take `Clc1cc2c(cc1Cl)Oc1cc(Cl)c(Cl)cc1O2` [dioxin, 2,3,7,8-tetrachlorodibenzo-p-dioxin]: in series [4] (F2 generation), the “onset of puberty for females” value was “early onset” and the “onset of puberty in males” value is “early onset”. Further, in series [4] (setting [7]), the “onset of puberty in females” value was “early onset; also recorded: advanced” and the “onset of puberty in males” value was “no effect”. Further, the testosterone levels entry in series [5] is “reduction”. Moreover, in series [6], the “number of DMR” value came out at 50.
